Results as given in ChEMBL document CHEMBL4507276 (2021).

Tests used:
[1] = molecular target: Protein kinase C epsilon type (Homo sapiens) (UniProt Q02156); conditions: Compound concentration 1000.0 nM
[2] = molecular target: Alpha-2B adrenergic receptor (Homo sapiens) (UniProt P18089); conditions: Compound concentration 10.0 uM
[3] = molecular target: Insulin-like growth factor 1 receptor (Homo sapiens) (UniProt P08069); assay: IGF1R Invitrogen selectivity data (BI); conditions: Compound concentration 3.0 uM
[4] = molecular target: PAS domain-containing serine/threonine-protein kinase (Homo sapiens) (UniProt Q96RG2); assay: PASK Invitrogen selectivity data (BI); conditions: Compound concentration 3.0 uM
Homo sapiens = organism: Homo sapiens; assay: MLCK Invitrogen selectivity data (BI); conditions: Compound concentration 3.0 uM
[5] = molecular target: T1, Serine/threonine-protein kinase Chk1 (Homo sapiens) (UniProt O14757); assay: CHEK1 Invitrogen selectivity data (BI); conditions: Compound concentration 3.0 uM
T1 sequence (whole entry): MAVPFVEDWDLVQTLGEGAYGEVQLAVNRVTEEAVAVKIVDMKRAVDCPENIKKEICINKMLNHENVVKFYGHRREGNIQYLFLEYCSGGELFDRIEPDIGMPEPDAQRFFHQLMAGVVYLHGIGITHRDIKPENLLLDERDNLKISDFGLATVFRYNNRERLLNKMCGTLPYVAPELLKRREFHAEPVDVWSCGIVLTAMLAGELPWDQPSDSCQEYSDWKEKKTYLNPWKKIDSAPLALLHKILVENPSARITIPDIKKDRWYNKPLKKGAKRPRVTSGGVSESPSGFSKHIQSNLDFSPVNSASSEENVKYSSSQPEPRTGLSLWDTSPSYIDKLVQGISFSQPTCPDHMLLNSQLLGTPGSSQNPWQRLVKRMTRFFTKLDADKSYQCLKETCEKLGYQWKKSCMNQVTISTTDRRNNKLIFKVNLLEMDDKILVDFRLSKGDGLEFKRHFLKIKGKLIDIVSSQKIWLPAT

[6] = molecular target: 3-phosphoinositide-dependent protein kinase 1 (Homo sapiens) (UniProt O15530); assay: PDK1DIRECT Invitrogen selectivity data (BI); conditions: Compound concentration 3.0 uM
[7] = molecular target: Casein kinase I isoform delta (Homo sapiens) (UniProt P48730); assay: CSNK1D Invitrogen selectivity data (BI); conditions: Compound concentration 3.0 uM
[8] = molecular target: 5-hydroxytryptamine receptor 1B (Homo sapiens) (UniProt P28222); conditions: Compound concentration 10.0 uM
[9] = molecular target: Maternal embryonic leucine zipper kinase (Homo sapiens) (UniProt Q14680); assay: MELK Invitrogen selectivity data (BI); conditions: Compound concentration 3.0 uM
[10] = molecular target: T2, Serine/threonine-protein kinase Sgk1 (Homo sapiens) (UniProt O00141); assay: SGK Invitrogen selectivity data (BI); conditions: Compound concentration 3.0 uM
T2 sequence (whole entry): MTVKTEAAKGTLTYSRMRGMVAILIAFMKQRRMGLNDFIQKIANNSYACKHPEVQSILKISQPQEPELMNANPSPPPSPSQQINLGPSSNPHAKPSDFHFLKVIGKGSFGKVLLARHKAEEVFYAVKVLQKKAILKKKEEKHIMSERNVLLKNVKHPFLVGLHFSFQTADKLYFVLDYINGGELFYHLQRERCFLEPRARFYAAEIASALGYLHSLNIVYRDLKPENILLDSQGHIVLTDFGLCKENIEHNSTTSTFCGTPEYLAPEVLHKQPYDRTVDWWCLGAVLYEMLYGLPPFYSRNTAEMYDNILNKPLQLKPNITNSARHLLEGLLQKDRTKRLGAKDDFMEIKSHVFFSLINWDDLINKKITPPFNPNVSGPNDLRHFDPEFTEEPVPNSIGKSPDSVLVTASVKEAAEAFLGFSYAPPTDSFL

[11] = molecular target: Fibroblast growth factor receptor 3 (Homo sapiens) (UniProt P22607); assay: FGFR3 Invitrogen selectivity data (BI); conditions: Compound concentration 3.0 uM
[12] = molecular target: Corticotropin-releasing factor receptor 1 (Homo sapiens) (UniProt P34998); assay: CRF1/H Cerep selectivity data (BI); conditions: Compound concentration 20.0 uM
[13] = molecular target: Dual specificity protein kinase CLK4 (Homo sapiens) (UniProt Q9HAZ1); assay: CLK4 Invitrogen selectivity data (BI); conditions: Compound concentration 3.0 uM
[14] = molecular target: T3, Mitogen-activated protein kinase kinase kinase kinase 2 (Homo sapiens) (UniProt Q12851); assay: MAP4K2 Invitrogen selectivity data (BI); conditions: Compound concentration 3.0 uM
T3 sequence (whole entry): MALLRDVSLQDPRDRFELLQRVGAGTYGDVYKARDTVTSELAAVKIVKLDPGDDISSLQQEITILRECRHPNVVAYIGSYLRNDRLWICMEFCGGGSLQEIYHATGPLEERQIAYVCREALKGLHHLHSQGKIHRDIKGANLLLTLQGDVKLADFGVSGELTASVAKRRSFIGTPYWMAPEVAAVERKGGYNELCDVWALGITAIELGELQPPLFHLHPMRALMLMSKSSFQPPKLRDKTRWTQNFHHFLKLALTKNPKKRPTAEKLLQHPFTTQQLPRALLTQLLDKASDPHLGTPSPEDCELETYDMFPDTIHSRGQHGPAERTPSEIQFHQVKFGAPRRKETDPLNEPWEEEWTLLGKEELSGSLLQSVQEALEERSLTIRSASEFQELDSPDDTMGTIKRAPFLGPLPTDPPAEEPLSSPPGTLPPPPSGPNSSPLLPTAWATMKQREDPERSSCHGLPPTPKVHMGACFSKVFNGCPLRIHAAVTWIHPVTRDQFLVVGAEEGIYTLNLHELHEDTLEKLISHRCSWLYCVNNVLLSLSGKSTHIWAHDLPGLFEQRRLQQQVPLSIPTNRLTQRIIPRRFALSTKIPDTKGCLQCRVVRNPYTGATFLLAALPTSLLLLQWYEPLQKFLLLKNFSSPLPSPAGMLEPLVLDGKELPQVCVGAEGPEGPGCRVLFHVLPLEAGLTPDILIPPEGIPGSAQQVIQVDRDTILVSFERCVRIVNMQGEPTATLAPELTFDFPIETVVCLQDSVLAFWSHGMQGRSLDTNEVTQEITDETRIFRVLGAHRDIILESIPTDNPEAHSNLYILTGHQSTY

[15] = molecular target: Sigma non-opioid intracellular receptor 1 (Homo sapiens) (UniProt Q99720); assay: SIGMA1/HU Eurofins-Panlabs selectivity data (BI); conditions: Compound concentration 10.0 uM
[16] = molecular target: Tyrosine-protein kinase FRK (Homo sapiens) (UniProt P42685); assay: FRK Invitrogen selectivity data (BI); conditions: Compound concentration 3.0 uM
[17] = molecular target: Serine/threonine-protein kinase MRCK beta (Homo sapiens) (UniProt Q9Y5S2); assay: CDC42 BPB Invitrogen selectivity data (BI); conditions: Compound concentration 3.0 uM

Chain of Sigma non-opioid intracellular receptor 1 (Homo sapiens) (Q99720 whole entry): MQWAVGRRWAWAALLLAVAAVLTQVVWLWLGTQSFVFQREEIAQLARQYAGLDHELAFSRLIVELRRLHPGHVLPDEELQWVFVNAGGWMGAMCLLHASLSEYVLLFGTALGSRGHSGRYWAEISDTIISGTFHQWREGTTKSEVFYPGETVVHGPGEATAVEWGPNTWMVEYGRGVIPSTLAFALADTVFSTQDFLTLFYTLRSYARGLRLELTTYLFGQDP
Chain of Fibroblast growth factor receptor 3 (Homo sapiens) (P22607 23-806 limits assumed): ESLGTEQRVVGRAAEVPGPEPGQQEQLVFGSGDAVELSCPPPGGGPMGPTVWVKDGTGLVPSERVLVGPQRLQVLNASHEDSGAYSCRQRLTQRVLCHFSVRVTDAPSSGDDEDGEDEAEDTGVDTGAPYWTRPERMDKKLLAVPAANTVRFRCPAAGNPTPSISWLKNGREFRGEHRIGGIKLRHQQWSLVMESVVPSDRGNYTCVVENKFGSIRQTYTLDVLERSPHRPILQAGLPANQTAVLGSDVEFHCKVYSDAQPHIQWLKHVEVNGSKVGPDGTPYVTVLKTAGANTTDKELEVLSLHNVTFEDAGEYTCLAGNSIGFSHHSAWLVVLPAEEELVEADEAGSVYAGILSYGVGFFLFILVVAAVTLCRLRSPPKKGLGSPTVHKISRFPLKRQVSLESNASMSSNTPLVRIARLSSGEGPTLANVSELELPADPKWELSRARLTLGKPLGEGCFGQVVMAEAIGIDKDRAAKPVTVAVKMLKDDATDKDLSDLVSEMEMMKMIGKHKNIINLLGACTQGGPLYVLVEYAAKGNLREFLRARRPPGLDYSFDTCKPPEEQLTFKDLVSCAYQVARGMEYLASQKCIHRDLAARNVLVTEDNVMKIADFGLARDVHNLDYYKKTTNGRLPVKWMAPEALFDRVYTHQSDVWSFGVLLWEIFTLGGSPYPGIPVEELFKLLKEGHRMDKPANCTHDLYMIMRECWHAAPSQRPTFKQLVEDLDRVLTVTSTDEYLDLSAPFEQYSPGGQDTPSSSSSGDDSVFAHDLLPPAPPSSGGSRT
Chain of Protein kinase C epsilon type (Homo sapiens) (Q02156 whole entry): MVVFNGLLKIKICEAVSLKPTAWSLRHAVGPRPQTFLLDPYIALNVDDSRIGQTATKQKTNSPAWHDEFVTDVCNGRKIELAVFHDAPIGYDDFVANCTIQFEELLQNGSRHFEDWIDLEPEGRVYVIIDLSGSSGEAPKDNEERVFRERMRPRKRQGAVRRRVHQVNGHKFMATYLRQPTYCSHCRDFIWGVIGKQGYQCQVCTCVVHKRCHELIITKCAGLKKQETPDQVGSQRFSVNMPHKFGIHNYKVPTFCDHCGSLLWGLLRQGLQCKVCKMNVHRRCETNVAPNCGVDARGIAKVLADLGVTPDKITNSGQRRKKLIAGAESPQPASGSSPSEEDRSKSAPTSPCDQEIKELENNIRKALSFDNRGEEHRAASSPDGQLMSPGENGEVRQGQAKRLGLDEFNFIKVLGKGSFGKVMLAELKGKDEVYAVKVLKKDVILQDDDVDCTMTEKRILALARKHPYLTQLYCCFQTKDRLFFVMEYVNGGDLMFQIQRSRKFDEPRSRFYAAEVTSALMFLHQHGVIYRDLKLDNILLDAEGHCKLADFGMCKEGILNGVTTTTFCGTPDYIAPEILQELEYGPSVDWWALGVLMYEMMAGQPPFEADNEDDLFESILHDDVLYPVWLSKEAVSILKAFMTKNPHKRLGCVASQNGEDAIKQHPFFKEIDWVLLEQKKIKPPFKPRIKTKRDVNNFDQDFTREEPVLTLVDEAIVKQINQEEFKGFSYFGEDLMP
Chain of Corticotropin-releasing factor receptor 1 (Homo sapiens) (P34998 whole entry): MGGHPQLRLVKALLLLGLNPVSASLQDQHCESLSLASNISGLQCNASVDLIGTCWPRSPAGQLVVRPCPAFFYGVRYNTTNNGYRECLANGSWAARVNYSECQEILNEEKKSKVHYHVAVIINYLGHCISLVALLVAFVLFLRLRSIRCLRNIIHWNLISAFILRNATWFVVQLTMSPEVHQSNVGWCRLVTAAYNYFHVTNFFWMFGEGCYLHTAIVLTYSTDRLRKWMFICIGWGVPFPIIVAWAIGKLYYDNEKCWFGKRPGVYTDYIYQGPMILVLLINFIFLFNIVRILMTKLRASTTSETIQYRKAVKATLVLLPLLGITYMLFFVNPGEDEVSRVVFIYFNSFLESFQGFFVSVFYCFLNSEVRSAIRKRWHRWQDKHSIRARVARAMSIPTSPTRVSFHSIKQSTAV
Chain of Maternal embryonic leucine zipper kinase (Homo sapiens) (Q14680 whole entry, looked up): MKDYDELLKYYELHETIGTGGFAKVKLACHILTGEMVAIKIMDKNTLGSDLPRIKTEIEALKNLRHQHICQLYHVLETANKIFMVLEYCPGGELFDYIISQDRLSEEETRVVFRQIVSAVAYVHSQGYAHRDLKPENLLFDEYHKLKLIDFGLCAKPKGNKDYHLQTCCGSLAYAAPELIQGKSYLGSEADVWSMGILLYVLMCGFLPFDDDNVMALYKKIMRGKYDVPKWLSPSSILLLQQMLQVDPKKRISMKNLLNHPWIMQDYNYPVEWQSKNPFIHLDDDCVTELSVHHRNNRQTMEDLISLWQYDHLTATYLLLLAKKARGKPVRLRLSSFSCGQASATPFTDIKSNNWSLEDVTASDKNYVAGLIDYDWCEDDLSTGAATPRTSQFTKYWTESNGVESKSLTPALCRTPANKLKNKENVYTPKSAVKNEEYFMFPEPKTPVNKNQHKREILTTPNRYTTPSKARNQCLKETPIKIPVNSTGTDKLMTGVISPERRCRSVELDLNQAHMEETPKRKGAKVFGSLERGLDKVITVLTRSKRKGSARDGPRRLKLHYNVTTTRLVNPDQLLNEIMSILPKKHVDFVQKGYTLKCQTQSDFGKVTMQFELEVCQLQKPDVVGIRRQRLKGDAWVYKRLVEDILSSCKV
Chain of Alpha-2B adrenergic receptor (Homo sapiens) (P18089 whole entry): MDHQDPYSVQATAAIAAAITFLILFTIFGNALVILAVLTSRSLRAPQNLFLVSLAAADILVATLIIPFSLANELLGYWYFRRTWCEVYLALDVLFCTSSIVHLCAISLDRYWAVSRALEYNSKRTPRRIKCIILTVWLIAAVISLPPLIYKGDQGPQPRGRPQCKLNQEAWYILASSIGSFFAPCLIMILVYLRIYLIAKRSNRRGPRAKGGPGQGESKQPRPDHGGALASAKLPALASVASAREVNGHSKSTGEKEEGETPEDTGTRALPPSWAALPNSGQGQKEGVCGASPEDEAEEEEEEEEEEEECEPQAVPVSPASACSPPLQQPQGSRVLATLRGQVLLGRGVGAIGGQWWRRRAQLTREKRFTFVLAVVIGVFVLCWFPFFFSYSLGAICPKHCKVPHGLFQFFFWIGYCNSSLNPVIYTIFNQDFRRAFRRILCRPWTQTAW
Chain of 3-phosphoinositide-dependent protein kinase 1 (Homo sapiens) (O15530 whole entry, looked up, canonical isoform): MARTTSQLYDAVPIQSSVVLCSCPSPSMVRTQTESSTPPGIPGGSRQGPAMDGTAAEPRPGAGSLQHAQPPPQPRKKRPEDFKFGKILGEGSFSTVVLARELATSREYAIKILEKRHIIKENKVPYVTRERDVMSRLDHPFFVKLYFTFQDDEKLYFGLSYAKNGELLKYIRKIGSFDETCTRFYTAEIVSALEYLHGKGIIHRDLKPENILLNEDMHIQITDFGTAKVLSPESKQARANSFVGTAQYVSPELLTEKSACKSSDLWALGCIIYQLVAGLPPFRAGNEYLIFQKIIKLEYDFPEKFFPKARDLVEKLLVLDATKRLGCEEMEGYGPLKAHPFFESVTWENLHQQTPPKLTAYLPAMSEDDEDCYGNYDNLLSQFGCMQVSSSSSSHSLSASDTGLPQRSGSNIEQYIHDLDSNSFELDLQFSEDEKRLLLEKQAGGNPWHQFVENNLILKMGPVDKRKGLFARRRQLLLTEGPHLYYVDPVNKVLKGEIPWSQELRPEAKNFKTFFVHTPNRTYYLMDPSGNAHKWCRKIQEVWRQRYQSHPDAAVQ
Chain of Tyrosine-protein kinase FRK (Homo sapiens) (P42685 whole entry): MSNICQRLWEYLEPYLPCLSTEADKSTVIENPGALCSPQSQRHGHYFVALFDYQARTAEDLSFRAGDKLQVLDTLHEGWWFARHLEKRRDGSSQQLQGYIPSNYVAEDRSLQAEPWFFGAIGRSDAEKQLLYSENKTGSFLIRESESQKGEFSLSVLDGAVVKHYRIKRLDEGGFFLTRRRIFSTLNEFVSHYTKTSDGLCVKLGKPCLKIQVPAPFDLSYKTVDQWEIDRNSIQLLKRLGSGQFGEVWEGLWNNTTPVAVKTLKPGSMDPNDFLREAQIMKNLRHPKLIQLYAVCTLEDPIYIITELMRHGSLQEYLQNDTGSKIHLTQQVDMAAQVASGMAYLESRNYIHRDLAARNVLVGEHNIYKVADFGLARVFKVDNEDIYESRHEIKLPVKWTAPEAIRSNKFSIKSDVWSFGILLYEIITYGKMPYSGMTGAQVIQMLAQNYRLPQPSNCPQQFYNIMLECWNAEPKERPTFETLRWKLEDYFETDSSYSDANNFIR
Chain of Casein kinase I isoform delta (Homo sapiens) (P48730 whole entry, looked up, canonical isoform): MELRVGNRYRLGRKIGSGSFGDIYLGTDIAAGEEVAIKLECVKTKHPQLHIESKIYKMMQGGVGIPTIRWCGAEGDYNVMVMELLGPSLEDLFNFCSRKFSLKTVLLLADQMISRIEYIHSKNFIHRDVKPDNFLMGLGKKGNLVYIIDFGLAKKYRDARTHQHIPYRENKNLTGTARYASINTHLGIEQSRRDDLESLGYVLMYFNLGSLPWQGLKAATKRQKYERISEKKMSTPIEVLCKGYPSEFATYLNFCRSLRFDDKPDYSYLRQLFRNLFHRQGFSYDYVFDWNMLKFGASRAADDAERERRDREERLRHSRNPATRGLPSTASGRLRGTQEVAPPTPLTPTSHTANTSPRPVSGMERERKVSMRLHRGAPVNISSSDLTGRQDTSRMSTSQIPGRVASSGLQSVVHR

CN(C)C(=O)Cn1cc(-c2nc(C3(c4ccc(-c5cnc(N)nc5)cc4)CC3)no2)cn1 [BI 0153]
inactive: residual activity [1] 90% | inhibition [2] -3.57%

CN(C)C(=O)Cn1cc(-c2nc([C@@](C)(c3ccc(-c4cnc(N)nc4)cc3)C3CC3)no2)cn1 [BI 665915]
inactive: residual activity [3] 99.5% | residual activity [4] 100% | residual activity (Homo sapiens) 98% | residual activity [5] 96% | residual activity [6] 97% | residual activity [7] 97% | inhibition [8] -3.77% | residual activity [9] 94% | residual activity [10] 99% | residual activity [11] 95.5% | residual activity [12] 148% | residual activity [13] 95% | residual activity [14] 99.5% | residual activity [15] 108% | residual activity [16] 94.5% | residual activity [17] 94%
